These results are taken from patent publication US20050197350A1, “Novel quinoline, tetrahydroquinazoline, and pyrimidine derivatives and methods of treatment related to the use thereof” (TAISHO PHARMACEUTICAL CO., LTD., priority 2003, published 2005).

Like-named read-outs stand apart in the source and are kept apart here.

For the test, the system named is MCH receptors. Kind of test: MCH receptor activity class (method not given).
The mark [1] stands for this setting: class by percent of control at 10^-7 M or IC50.
Where [2] appears, read: MCH receptor activity class 1-3 (percent of control at 10^-7 M or IC50).
[3] abbreviates: activity class per percent of control at 10^-7 M or IC50.

In the case of `CC(Oc1ccccc1)C(=O)NC[C@H]1CC[C@@H](Nc2nccc(N(C)C)n2)CC1` (relative stereo) [compound 394], the class under setting [1] is recorded as 3 (Class 3 The value of percent of control at 10^−7 M was more than 60% or the value of IC50 was more than 200 nM.). Turning to `Cc1cc(N(C)C)nc(NC[C@H]2CC[C@@H](NC(=O)c3cccc(OC(F)(F)F)c3)CC2)n1` [compound 2741], the class (class by percent of control at 10^−7 M or IC50) is given as 3 (Class 3 The value of percent of control at 10^−7 M was more than 60% or the value of IC50 was more than 200 nM.).

As to `CN(C)c1cc(N[C@H]2CC[C@@H](CNC(=O)Nc3ccccc3C(F)(F)F)CC2)nc2ccccc12` [compound 2366], the class under setting [2] is given as 3 (Class 3 The value of percent of control at 10^−7 M was more than 60% or the value of IC50 was more than 200 nM.). Turning to `CN(C)c1nc(N[C@H]2CC[C@@H](NC[C@@H](COCc3ccccc3)OCc3ccccc3)CC2)nc2c1CCCC2` [compound 1487], under setting [1], the class is 3 (Class 3 The value of percent of control at 10^−7 M was more than 60% or the value of IC50 was more than 200 nM.). The same measure, in the same setting: as for `CCOc1ccccc1C(=O)NC[C@H]1CC[C@@H](Nc2nc3c(c(N(C)C)n2)CCCC3)CC1` [compound 634], the figure is 3 (Class 3 The value of percent of control at 10^−7 M was more than 60% or the value of IC50 was more than 200 nM.). As for `CN(C)c1cc(N[C@H]2CC[C@@H](NC(=O)C3C[C@H]3c3ccccc3)CC2)nc2ccccc12` (stereo partly drawn) [compound 46], the class (MCH receptor, class by percent of control at 10^-7 M or IC50) is reported as 3 (Class 3 The value of percent of control at 10^−7 M was more than 60% or the value of IC50 was more than 200 nM.). For the compound `COc1cc(OC)cc(C(=O)N[C@H]2CC[C@@H](Nc3nc4c(c(N(C)C)n3)CCCC4)CC2)c1` [compound 512], the class (class 1-3 by percent of control at 10^-7 M or IC50) was 1 (Class 1: The value of percent of control at 10^−7 M was less than 40% or the value of IC50 was less than 50 nM.). Turning to `Cc1cccc(C(C)(C)C)c1NC(=O)NC[C@H]1CC[C@@H](Nc2nccc(N(C)C)n2)CC1` [compound 2429, N-(2-tert-butyl-6-methylphenyl)-N′-[(cis-4-{[4-(dimethylamino)pyrimidin-2-yl]amino}cyclohexyl)methyl]urea], under setting [2], the class was 1 (Class 1: The value of percent of control at 10^−7 M was less than 40% or the value of IC50 was less than 50 nM.). In the case of `Cc1cc(N(C)C)nc(N[C@H]2CC[C@@H](C(=O)NCc3cc(F)ccc3F)CC2)n1` [Example 2583, cis-N-(2,5-difluorobenzyl)-4-{[4-(dimethylamino)-6-methylpyrimidin-2-yl]amino}cyclohexanecarboxamide], the class amounted to 1. `C[C@H](NC(=O)c1ccccc1C(=O)N[C@H]1CC[C@@H](Nc2cc(N(C)C)c3ccccc3n2)CC1)c1ccccc1` [compound 758]: the class under setting [1] is 3 (Class 3 The value of percent of control at 10^−7 M was more than 60% or the value of IC50 was more than 200 nM.). Same read-out and setting: as for `CN(C)c1nc(N[C@H]2CC[C@@H](CNC(=O)c3cccc(Cl)c3Cl)CC2)nc2c1CCCC2` [compound 659], the figure is 3 (Class 3 The value of percent of control at 10^−7 M was more than 60% or the value of IC50 was more than 200 nM.).

As to `CN(C)c1cc(N[C@H]2CC[C@@H](NCc3c[nH]nc3-c3ccc(C(F)(F)F)cc3)CC2)nc2ccccc12` [compound 1098], under setting [3], the class is 3 (Class 3 The value of percent of control at 10^−7 M was more than 60% or the value of IC50 was more than 200 nM.). `CC(NC(=O)NC1CCC(Nc2nc3c(c(N(C)C)n2)CCCC3)CC1)c1cccc2ccccc12` (stereo not drawn) [compound 1842]: under setting [1], the class was 3 (Class 3 The value of percent of control at 10^−7 M was more than 60% or the value of IC50 was more than 200 nM.).

For the compound `Cc1cc(CNC[C@H]2CC[C@@H](Nc3cc(N(C)C)c4ccccc4n3)CC2)cc(C)c1O` [compound 1140], under setting [3], the class is listed as 3 (Class 3 The value of percent of control at 10^−7 M was more than 60% or the value of IC50 was more than 200 nM.). With `CN(C)c1cc(N[C@H]2CC[C@@H](CNC(=O)Cc3cccc4ccccc34)CC2)nc2ccccc12` [compound 216], under setting [1], the class was 3 (Class 3 The value of percent of control at 10^−7 M was more than 60% or the value of IC50 was more than 200 nM.).
